From ChEMBL document CHEMBL5291721, “A preclinical secondary pharmacology resource illuminates target-adverse drug reaction associations of marketed drugs” (Nat Commun, 2023)

Legend:
[1] = molecular target: T1, Progesterone receptor (Homo sapiens, UniProt P06401)
T1 sequence (P06401 whole entry): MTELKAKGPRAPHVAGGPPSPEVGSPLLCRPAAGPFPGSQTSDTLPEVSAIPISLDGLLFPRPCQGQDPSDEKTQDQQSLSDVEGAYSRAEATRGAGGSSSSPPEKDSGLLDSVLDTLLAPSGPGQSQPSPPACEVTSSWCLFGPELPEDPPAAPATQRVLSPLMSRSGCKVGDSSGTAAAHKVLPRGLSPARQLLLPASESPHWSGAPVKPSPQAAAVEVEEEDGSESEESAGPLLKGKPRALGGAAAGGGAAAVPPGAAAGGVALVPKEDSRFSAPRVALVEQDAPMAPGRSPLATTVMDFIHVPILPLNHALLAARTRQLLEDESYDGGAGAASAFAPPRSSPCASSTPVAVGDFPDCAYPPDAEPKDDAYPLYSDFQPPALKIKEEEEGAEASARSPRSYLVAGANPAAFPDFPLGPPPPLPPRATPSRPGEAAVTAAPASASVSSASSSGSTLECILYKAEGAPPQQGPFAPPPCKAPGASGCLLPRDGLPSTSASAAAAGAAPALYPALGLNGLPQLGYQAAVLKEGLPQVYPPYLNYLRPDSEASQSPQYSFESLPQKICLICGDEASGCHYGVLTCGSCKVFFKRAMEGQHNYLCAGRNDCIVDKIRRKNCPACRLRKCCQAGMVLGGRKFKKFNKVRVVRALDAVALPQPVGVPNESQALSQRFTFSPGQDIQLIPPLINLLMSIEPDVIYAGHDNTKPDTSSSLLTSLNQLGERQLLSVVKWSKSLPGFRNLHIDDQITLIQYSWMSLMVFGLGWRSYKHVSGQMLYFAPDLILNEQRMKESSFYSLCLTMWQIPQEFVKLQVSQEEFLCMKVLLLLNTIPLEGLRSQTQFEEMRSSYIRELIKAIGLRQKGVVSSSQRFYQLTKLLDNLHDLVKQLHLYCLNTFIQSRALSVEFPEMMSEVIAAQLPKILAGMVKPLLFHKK

[2] = molecular target: Sodium-dependent dopamine transporter (Homo sapiens, UniProt Q01959)
[3] = molecular target: T2, Alpha-1A adrenergic receptor (Homo sapiens, UniProt P35348); type: functional, cell-based
T2 sequence (P35348 whole entry): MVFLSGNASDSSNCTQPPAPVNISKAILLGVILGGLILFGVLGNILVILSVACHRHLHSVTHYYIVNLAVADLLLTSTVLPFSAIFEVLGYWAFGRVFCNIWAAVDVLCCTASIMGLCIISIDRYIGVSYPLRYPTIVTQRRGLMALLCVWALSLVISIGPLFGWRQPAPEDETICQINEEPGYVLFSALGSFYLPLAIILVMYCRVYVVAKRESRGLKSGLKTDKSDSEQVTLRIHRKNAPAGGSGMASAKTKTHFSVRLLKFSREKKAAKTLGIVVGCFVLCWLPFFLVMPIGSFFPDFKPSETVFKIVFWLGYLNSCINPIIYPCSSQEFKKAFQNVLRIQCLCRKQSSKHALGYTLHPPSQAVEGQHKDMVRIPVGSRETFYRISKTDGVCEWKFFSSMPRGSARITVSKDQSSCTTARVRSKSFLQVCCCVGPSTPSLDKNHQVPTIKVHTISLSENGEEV

[4] = molecular target: Prothrombin (Homo sapiens, UniProt P00734); type: functional
[5] = molecular target: T3, Amine oxidase [flavin-containing] A (Homo sapiens, UniProt P21397); type: functional
T3 sequence (P21397 whole entry): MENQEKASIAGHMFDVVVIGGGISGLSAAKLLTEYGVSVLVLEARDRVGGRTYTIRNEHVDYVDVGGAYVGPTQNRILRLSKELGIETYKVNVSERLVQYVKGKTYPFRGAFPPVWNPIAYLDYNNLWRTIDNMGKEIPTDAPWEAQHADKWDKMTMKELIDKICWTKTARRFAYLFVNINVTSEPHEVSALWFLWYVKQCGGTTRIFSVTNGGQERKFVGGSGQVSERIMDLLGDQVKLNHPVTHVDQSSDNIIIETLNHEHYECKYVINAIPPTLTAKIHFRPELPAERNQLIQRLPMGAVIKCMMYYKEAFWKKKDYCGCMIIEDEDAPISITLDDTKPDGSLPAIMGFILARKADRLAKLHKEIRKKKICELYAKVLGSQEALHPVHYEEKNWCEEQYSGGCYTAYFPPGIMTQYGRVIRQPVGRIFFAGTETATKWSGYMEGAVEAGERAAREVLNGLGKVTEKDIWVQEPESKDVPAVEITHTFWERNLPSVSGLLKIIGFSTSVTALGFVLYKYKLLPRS

[6] = molecular target: D(1A) dopamine receptor (Homo sapiens, UniProt P21728)
[7] = molecular target: T4, Estrogen receptor (Homo sapiens, UniProt P03372)
T4 sequence (P03372 whole entry): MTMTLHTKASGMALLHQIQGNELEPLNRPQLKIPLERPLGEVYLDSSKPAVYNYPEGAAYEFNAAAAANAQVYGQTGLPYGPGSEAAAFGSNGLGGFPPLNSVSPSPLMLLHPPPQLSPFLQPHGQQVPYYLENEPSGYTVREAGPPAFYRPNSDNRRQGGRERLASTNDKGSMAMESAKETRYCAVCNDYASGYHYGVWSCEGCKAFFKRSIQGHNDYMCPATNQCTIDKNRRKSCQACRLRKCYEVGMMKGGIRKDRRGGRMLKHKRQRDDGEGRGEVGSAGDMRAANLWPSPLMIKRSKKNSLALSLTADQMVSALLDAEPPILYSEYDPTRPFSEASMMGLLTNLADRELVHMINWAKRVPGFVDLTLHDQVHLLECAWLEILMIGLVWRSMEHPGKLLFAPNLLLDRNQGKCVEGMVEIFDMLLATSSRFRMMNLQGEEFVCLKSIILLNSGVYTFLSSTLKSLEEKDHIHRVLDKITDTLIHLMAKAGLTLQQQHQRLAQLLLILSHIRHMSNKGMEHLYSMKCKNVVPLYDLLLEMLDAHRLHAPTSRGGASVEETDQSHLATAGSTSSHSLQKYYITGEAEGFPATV
Note: assay procedure not described here.

Sequence of Sodium-dependent dopamine transporter (Q01959 whole entry): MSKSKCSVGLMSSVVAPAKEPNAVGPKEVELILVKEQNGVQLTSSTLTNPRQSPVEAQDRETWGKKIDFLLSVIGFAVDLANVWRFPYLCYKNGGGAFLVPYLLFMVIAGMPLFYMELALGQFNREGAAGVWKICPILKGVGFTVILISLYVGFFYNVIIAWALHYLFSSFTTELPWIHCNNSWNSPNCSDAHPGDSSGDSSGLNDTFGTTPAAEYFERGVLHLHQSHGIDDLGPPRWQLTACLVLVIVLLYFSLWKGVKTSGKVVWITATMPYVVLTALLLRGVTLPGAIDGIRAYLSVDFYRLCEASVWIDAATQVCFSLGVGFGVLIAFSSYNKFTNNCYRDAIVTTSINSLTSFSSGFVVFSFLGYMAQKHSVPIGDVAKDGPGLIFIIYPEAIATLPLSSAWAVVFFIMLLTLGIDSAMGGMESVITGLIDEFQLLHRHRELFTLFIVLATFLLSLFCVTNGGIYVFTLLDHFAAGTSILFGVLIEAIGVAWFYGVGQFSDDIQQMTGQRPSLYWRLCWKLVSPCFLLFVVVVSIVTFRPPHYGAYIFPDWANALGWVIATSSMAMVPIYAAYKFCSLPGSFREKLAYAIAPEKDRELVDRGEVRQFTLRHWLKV
Sequence of D(1A) dopamine receptor (P21728 whole entry): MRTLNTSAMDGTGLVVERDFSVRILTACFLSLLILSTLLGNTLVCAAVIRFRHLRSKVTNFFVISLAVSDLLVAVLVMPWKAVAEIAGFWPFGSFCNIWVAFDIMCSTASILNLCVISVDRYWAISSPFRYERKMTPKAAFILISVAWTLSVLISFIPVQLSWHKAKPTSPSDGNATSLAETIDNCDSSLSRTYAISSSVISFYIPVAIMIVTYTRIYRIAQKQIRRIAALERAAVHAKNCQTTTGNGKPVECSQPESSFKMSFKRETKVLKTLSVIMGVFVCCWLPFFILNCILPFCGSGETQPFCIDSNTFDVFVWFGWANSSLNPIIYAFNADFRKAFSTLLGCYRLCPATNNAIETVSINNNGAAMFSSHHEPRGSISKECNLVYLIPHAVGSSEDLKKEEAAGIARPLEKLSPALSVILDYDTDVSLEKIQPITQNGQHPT

`CC(=O)OCC1=C(C(=O)O)N2C(=O)[C@@H](NC(=O)[C@H](N)c3ccccc3)[C@H]2SC1` [CEPHALOGLYCIN] gave an AC50 [1] of over 30 µM, an AC50 [2] of over 30 µM and an AC50 [3] of over 30 µM. For the same compound, the AC50 [4] was over 30 µM, the AC50 [5] was over 30 µM and the AC50 [6] was over 30 µM. The AC50 [7] was over 30 µM.
`CCC(C)(C)c1ccc(CC(C)CN2C[C@@H](C)O[C@@H](C)C2)cc1` (stereo not given in full) [AMOROLFINE] was tested, and the AC50 [1] was over 30 µM, the AC50 [2] was over 30 µM and the AC50 [3] was over 30 µM. The AC50 [4] was over 30 µM, the AC50 [5] was over 30 µM and the AC50 [6] was over 30 µM. It also gave an AC50 [7] of over 30 µM.
`CC[C@]1(O)C[C@H]2CN(CCc3c([nH]c4ccccc34)[C@@](C(=O)OC)(c3cc4c(cc3OC)N(C=O)[C@H]3[C@@](O)(C(=O)OC)[C@H](OC(C)=O)[C@]5(CC)C=CCN6CC[C@]43[C@@H]65)C2)C1` [VINCRISTINE] gave an AC50 [1] of over 30 µM, an AC50 [2] of over 30 µM and an AC50 [3] of over 30 µM. The AC50 [4] was over 30 µM, the AC50 [5] was over 30 µM and the AC50 [6] was over 30 µM. For the same compound, the AC50 [7] was over 30 µM.
Work on `CCCCOC(=O)C(=O)[C@H]1[C@H](C)C[C@H]2[C@@H]3C[C@H](F)C4=CC(=O)C=C[C@]4(C)[C@H]3[C@@H](O)C[C@@]21C` [FLUOCORTIN BUTYL] yielded an AC50 [1] of 0.711 µM, an AC50 [2] of 27.2 µM and an AC50 [3] of over 30 µM. It also gave an AC50 [4] of over 30 µM, an AC50 [5] of over 30 µM and an AC50 [6] of over 30 µM. The AC50 [7] was over 30 µM.
With `NC1CCN(c2c(F)cc3c(=O)c(C(=O)O)cn(C4CC4)c3c2Cl)C1` (stereo not given) [CLINAFLOXACIN] the AC50 [1] was over 30 µM, the AC50 [2] was over 30 µM and the AC50 [3] was over 30 µM. The AC50 [4] was over 30 µM, the AC50 [5] was over 30 µM and the AC50 [6] was over 30 µM. For the same compound, the AC50 [7] was over 30 µM.
